# Key:
# Details in all cases: 48 h
# CU-ACC1 [1] = assay: AC50 viability; higher = less potent
# Summary of the method: (§1)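 Three adrenocortical carcinoma cell lines were seeded at 500–1,000 cells/well in 5 µL medium in 1,536-well plates. 23 nL of each MIPE 5.0 library compound was added at 11 concentrations. After 48 h (per the protocol name), CellTiter-Glo was added for 15 minutes at room temperature and luminescence was read. Signals were normalised per plate to vehicle and empty-well controls. AC50 and area under the curve came from fitted concentration-response curves, keeping only inhibitory or non-responding curve classes.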
# CU-ACC1 [2] = assay: area under concentration-response curve (viability) (AUC (a.u.)); higher = less active
# Summary of the method: as §1
# CU-ACC2 = assay: as above
# Summary of the method: as §1
# NCI-H295R = assay: as above
# Summary of the method: as §1
Structure (SMILES),AC50 viability (CU-ACC1 [1]) [µM],area under concentration-response curve (CU-ACC1 [2]),area under concentration-response curve (CU-ACC2),area under concentration-response curve (NCI-H295R)
CN(NC(=O)CC(=O)NN(C)C(=S)c1ccccc1)C(=S)c1ccccc1,3.72,402,567,521
N[S+](=O)([O-])c1ccc(NC(=S)N2CCN(C/C=C/c3ccccc3)CC2)cc1,20.9,494,583,523
CC(C)n1c(/C=C/[C@H](O)C[C@H](O)CC(=O)O)c(-c2ccc(F)cc2)c2ccccc21,10.5,506,617,567
Cn1cnc2c(F)c(Nc3ccc(Br)cc3F)c(C(=O)NOCCO)cc21,0.0332,242,145,159
O=C(NC[C@H](O)CO)c1ccncc1Nc1ccc(I)cc1F,11.8,397,506,537
OC[C@H](Cc1ccccc1)Nc1nc(Oc2ccc3c(c2)CCC3)nc2c1ncn2Cc1ccc(-c2ccccc2)cc1,14.8,430,524,477
COCCOC1=CN=C2\C=C/N([C@H](C)C3=NN=C4[N]3C=C(C=C4F)C5=C[N](C)N=C5)C(=O)C2=C1,0.0118,394,338,322
COc1nnc2ccc(N3CCC(c4ccc(OCCN5CCN(C)C(=O)[C@H]5C)cc4)CC3)nn12,0.263,468,449,474
O=C1CCc2cc(OCCCCc3nnnn3C3CCCCC3)ccc2N1,18.6,468,579,531
[O-]C(=O)C1=C(C(=C(Cl)C(=C1Cl)Cl)Cl)C/2=C/3\C=C(I)/C(=O)/C(=C3OC4=C2C=C(I)C(=C4I)[O-])I,13.2,421,434,417
O=C(NOCCO)c1ccc2cncn2c1Nc1ccc(I)cc1F,14.8,461,598,549
O=C(Nc1ccccc1Br)N[C@@H]1CCN(c2ccc(C(F)(F)F)cn2)C1,20.9,477,575,539
CN[S+]([O-])(=O)NC1=NC=CC(=C1F)CC/2=C(C)/C3=CC=C(OC4=NC=CC=N4)C=C3OC2=O,7.42,441,611,577
CC#C[C@@H](CC(=O)O)c1ccc(OCc2cccc(-c3ccc(C(F)(F)F)cc3)c2)cc1,1.48,406,506,411
C=CC(=O)N1CCC(C2CCNc3c(C(N)=O)c(-c4ccc(Oc5ccccc5)cc4)nn32)CC1 (centres undefined),16.6,492,614,553
CCOCOC[C@H](C[C@H](C)C(=O)NO)NC(=O)c1ccc(Oc2ccccc2)cc1,23.5,512,636,595
CN(CC#C)C/C1=C/C2=CC=CC=C2OC3=CC=CC=C13,33.2,419,524,546
c1ccc2c(-c3cnn4cc(-c5ccc(OCCN6CCOCC6)cc5)cnc34)ccnc2c1,4.56,395,637,568
Cc1c(CN2CCC(Nc3ncnc4sc(CC(F)(F)F)cc34)CC2)ccc2c1cc(C#N)n2Cc1cn[nH]c1,3.32,411,540,453
Cc1nc2cnc3ccc(C#Cc4cccnc4)cc3c2n1-c1ccc(C(C)(C)C#N)cc1,0.661,402,557,492
CCc1c(C(=O)NNC(=O)[C@@H](O)c2cc(F)cc(F)c2)ccc(O)c1C,26.3,387,492,441
CN(C)C(=O)[C@H](O)[C@H](Cc1ccccc1)NC(=O)c1cc2cc(Cl)ccc2[nH]1,0.0118,364,420,444

Structure (SMILES),AC50 viability (CU-ACC1 [1]) [µM],area under concentration-response curve (CU-ACC1 [2]),area under concentration-response curve (CU-ACC2),area under concentration-response curve (NCI-H295R)
CO[C@H]1C[C@@H]2CC[C@@H](C)[C@@](O)(O2)C(=O)C(=O)N2CCCC[C@H]2C(=O)O[C@H]([C@H](C)C[C@@H]2CC[C@@H](OCCO)[C@H](OC)C2)CC(=O)[C@H](C)/C=C(/C)[C@@H](O)[C@@H](OC)C(=O)[C@H](C)C[C@H](C)\C=C/C=C\C=C/1C,18.6,421,439,–
CCCn1c(=O)c2[nH]c(C34CC5CC3C[C@@H](C5)C4)nc2n(CCC)c1=O,26.3,435,524,489
CNC(=O)c1c(F)cccc1Nc1nc(Nc2cc3c(cc2OC)CCN3C(=O)CN(C)C)nc2[nH]ccc12,20.9,524,526,458
COC1CCN(CC1)C(=O)C2=CC(=CC=C2F)CC/3=N/NC(=O)C4=CC=CC=C34,0.209,441,457,423
COC1=CC=CC2=C1C(=C(/C(=O)N(C)C3=CC=C(C=C3)C(F)(F)F)C(=O)N2C)/O,0.0525,279,187,–
Clc1ccccc1C(c1ccccc1)(c1ccccc1)n1ccnc1,18.6,509,518,–
OC1=CC2=C(C=C1)C(=O)\C(=C(O2)\C3=CC(=C(O)C=C3)O)O,14.8,451,548,–
C[C@@H]1CC2C3C[C@H](F)C\4=C\C(=O)\C=C/[C@]4(C)[C@@]3(F)[C@@H](O)C[C@]2(C)[C@@]1(OC(=O)C5=CC=CO5)C(=O)SCF (some centres undefined),41.7,468,592,–
O=C(O)c1ccc(O)c2ncc(N3CCOCC3)cc12,23.5,442,525,–
COC1CCC(C(=O)c2ccc3nc4c(cc3c2)CCCO4)CC1 (centres undefined),16.6,460,501,–
CCOC(=O)[C@@]1(CCCCCCOc2ccc(Cl)cc2)CO1,23.5,382,624,–
Clc1ccc(Cn2c(CN3CCCC3)nc3ccccc32)cc1,29.5,447,576,–
CN1CCc2c(n(Cc3ccc(C(=O)NO)cc3)c3ccccc23)C1,29.5,426,482,–
O=C(Nc1cccc(Br)c1)c1cccc([S+](=O)([O-])N2CCCCCC2)c1,29.5,486,608,–
CN1CCC(CC1)=C2C3=C(C=CC=C3)\C=C/C4=C2C=CC=C4,8.33,373,480,–
COC[C@H]1OC(=O)C2=COC3=C2[C@@]1(C)\C4=C(C5CCC(=O)[C@@]5(C)C[C@H]4OC(C)=O)/C3=O (some centres undefined),16.6,446,549,–
CC1Oc2cc(cnc2N)-c2c(nn(C)c2C#N)CN(C)C(=O)c2ccc(F)cc21 (centres undefined),6.61,463,485,–
CCC1CCCCN1C(=O)n1ncc(C(O)(c2ccccc2)c2ccccc2)n1 (centres undefined),18.6,435,571,–
Clc1ccc(C(Cn2ccnc2)OCc2ccsc2Cl)c(Cl)c1 (centres undefined),16.6,476,584,–
O=C(CCN1CCN(C(=O)OCc2cc(Cl)cc(Cl)c2)CC1)c1ccc2[nH]c(=O)oc2c1,23.5,468,495,–
N[S+](=O)([O-])c1ccc([S+](=O)([O-])Nc2cccc3c(Cl)c[nH]c23)cc1,8.33,404,527,–
